In patent publication US12161647B2, “Treating hearing loss” (Massachusetts Eye and Ear Infirmary, priority 2012, dated 2024):

Columns and labels:
[1] = tested on: deafened cochlea of Sox2-CreER; mT/mG mice; assay: In vivo lineage tracing of Sox2-positive supporting cells after round window administration; set-up: species or system mouse; conditions: one month after LY411575 treatment, left ear; none in control ears
Description: For the experiments using inner ear spheres, C57BL/6 (Jackson Labs) or Math1-nGFP reporter mouse (19) (a gift from Jane Johnson, University of Texas) of both sexes were used. To create organ of Corti explants with ablated hair cells, Mos-iCsp3 mice (20) were crossed with Pou4f3-Cre mice (6) (a gift from Douglas Vetter, Tufts University). For all in vivo experiments, we used 4-week-old Cre reporter line, mT/mG (Jackson Labs), crossed to a Sox2-CreER mouse (47) (a gift from Konrad Hochedlinger, Mass General Hospital). After genotyping, double transgenic animals were used for lineage tracing. We used young adult wild-type littermates of the mT/mG; Sox2-CreER mice to prevent strain effects in the response to noise, which are known to vary depending on background (22, 48). Mice were genotyped by PCR. All protocols were approved by the Institutional Animal Care and Use Committee of Massachusetts Eye and Ear Infirmary or the by the ethics committee of Keio University Union on Laboratory Animal Medicine, in compliance with the Public Health Service policy on humane care and use of laboratory animals.
4-week-old mice were exposed free-field, awake and unrestrained, in a small reverberant chamber (22). Acoustic trauma was produced by a 2 h exposure to an 8-16 kHz octave band noise presented at 116 dB SPL. […]

deafened mature cochlea = assay: Hair cell and supporting cell counts in deafened mature cochlea after round window administration; format: in vivo, mouse
Procedure: 4-week-old mice were exposed free-field, awake and unrestrained, in a small reverberant chamber (22). Acoustic trauma was produced by a 2 h exposure to an 8-16 kHz octave band noise presented at 116 dB SPL. The exposure stimulus was generated by a custom white-noise source, filtered (Brickwall Filter with a 60 dB/octave slope), amplified (Crown power amplifier), and delivered (JBL compression driver) through an exponential horn fitted securely to a hole in the top of a reverberant box.
4-week-old mice weighing 12 to 16 g were used. Before surgery, the animals were anesthetized with ketamine (20 mg/kg, i.p.) and xylazine (100 mg/kg, i.p.), and an incision was made posterior to the pinna near the external meatus after local administration of lidocaine (1%). The otic bulla was opened to approach the round window niche. The end of a piece of PE 10 tubing (Becton Dickinson) was drawn to a fine tip in a flame and gently inserted into the round window niche. LY411575 was dissolved in DMSO and diluted 10-fold in polyethylene glycol 400 (Sigma) to a final concentration of 4 mM. This solution (total volume 1 μl) was injected into the round window niche of the left ear. Polyethylene glycol 400 with 10% DMSO was injected into the right ear as a control. The solution was administered for 2 min. This approach is presently used clinically (e.g. transtympanic injection of steroids for sudden hearing loss and gentamicin for severe balance disorders) and has the advantage of sparing the […] but still taking advantage of the local route provided by the round window membrane for delivery of drug into the inner ear (50). Gelatin was placed on the niche to maintain the solution, and the wound was closed.
For collection of mature mouse cochleae, after being deeply anesthetized with ketamine and xylazine, the mice were transcardially perfused with 0.01 M phosphate buffer (pH 7.4) containing 8.6% sucrose, followed by fixative consisting of freshly depolymerized 4% paraformaldehyde in 0.1 M phosphate buffer (pH 7.4). After decapitation, the temporal bones were removed and immediately placed in the same fixative at 4° C. Small openings were made at the round window, oval window, and apex of the cochlea. […] Primary antibodies were detected with secondary antibodies conjugated with Alexa 488, 568, and 647 (Molecular Probes) and viewed by confocal fluorescence microscopy (TCS SP5, Leica). […]
Cell counting for spheres was performed with MetaMorph software. The cell number was determined from DAPI- or Hoechst-positive nuclei. […] For explants, inner hair cells, outer hair cells, and supporting cells in the outer hair cell region were counted on cochlear whole mounts. […]

C[C@H](NC(=O)[C@@H](O)c1cc(F)cc(F)c1)C(=O)N[C@@H]1C(=O)N(C)c2ccccc2-c2ccccc21 [LY411575, N-2((2S)-2-(3,5-difluorophenyl)-2-hydroxyethanoyl)-N1-((7S)-5-methyl-6-oxo-6,7-dihydro-5H-dibenzo[b,d]azepin-7-yl)-l-alaninamide]
myosin VIIa-positive cells also expressing GFP (Sox2 lineage) [1]: numerous | numbers of inner hair cells (deafened mature cochlea; 3 months, treated group): no significant changes | number of outer hair cells compared to carrier-treated contralateral ear (deafened mature cochlea; 3 months, 8-16 kHz, p<0.05): increased | number of supporting cells in the outer hair cell region compared to carrier-treated ear (deafened mature cochlea; 3 months, 8 and 11.3 kHz areas, p<0.05): decreased significantly | outer hair cells in the most basal regions (deafened mature cochlea; above 22 kHz, with and without LY411575): completely absent
